Measured values published in ChEMBL document CHEMBL4152385, “Synthesis, Receptor Affinity, and Antiallodynic Activity of Spirocyclic σ Receptor Ligands with Exocyclic Amino Moiety” (J Med Chem, 2018).
Active and inactive are the calls of the source. No cut-off for these calls is given here.

Columns and labels:
[1] = biological target: T1, Sigma intracellular receptor 2 (Rattus norvegicus, UniProt Q5U3Y7); test: Displacement of [3H]-di-o-tolylguanidine from sigma2 receptor in rat liver membranes incubated for 120 mins by scintillation counting method; assay type: cell membranes, Membrane
T1 sequence (Q5U3Y7 whole entry): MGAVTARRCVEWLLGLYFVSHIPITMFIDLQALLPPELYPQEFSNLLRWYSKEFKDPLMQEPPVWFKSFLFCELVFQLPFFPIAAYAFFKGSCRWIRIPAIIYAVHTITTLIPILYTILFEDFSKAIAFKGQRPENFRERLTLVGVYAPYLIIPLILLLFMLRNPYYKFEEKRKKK

[2] = Displacement of [3H]-(+)-MK-801 from NMDA PCP binding site in pig brain cortex membrane incubated for 120 mins by scintillation counting method; assay type: cell membranes, Sus scrofa
[3] = biological target: Glutamate receptor ionotropic, NMDA 2B (Homo sapiens, UniProt Q13224); test: Displacement of [3H]ifenprodil from GluN2B (unknown origin) expressed in mouse L(tk-) cell membranes incubated for 120 mins by scintillation counting method
Mu-type opioid receptor [4] = biological target: Mu-type opioid receptor (Homo sapiens, UniProt P35372); test: Agonist activity at human MOR expressed in CHOK1 cells assessed as reduction in forskolin-induced intracellular cAMP increase after 45 mins by HTRF analysis; assay type: functional, cell-based
[5] = biological target: T2, Alpha-1A adrenergic receptor (Homo sapiens) (UniProt P35348); test: Inhibition of alpha-1A adrenergic receptor (unknown origin) at 1 uM relative to control
T2 sequence (whole entry): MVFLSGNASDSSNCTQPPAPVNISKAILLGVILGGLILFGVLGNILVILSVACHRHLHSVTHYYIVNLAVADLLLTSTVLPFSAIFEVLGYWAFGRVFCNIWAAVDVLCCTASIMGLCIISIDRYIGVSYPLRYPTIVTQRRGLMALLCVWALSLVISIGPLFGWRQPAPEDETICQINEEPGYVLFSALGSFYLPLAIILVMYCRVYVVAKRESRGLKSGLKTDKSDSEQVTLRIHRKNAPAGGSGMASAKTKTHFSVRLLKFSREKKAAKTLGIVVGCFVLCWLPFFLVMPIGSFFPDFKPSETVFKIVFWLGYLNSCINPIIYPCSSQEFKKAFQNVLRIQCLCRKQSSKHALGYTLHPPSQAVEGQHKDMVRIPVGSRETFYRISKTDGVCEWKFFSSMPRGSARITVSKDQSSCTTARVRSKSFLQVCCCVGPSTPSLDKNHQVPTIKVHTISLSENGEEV

[6] = biological target: Histamine H1 receptor (Homo sapiens) (UniProt P35367); test: Inhibition of histamine H1 receptor (unknown origin) at 1 uM relative to control
[7] = biological target: T3, 5-hydroxytryptamine receptor 1A (Homo sapiens) (UniProt P08908); test: Inhibition of 5-HT1A receptor (unknown origin) at 1 uM relative to control
T3 sequence (whole entry): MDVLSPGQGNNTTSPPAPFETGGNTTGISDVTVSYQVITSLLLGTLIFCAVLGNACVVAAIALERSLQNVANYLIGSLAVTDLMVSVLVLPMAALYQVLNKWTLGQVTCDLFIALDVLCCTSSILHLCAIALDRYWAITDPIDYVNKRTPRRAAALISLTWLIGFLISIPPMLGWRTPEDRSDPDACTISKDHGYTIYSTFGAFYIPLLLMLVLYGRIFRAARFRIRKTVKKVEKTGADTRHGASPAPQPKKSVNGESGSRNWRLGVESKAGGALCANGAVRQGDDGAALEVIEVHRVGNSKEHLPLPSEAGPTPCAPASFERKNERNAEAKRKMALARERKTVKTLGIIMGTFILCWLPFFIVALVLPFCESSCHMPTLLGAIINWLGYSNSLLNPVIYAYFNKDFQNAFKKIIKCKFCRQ

[8] = biological target: 5-hydroxytryptamine receptor 2B (Homo sapiens) (UniProt P41595); test: Inhibition of 5-HT2B receptor (unknown origin) at 1 uM relative to control
[9] = biological target: Sodium-dependent noradrenaline transporter (Homo sapiens) (UniProt P23975); test: Inhibition of NET (unknown origin) at 1 uM relative to control
[10] = biological target: Sodium-dependent dopamine transporter (Homo sapiens) (UniProt Q01959); test: Inhibition of DAT (unknown origin) at 1 uM relative to control
[11] = biological target: Sodium-dependent serotonin transporter (Homo sapiens) (UniProt P31645); test: Inhibition of SERT (unknown origin) at 1 uM relative to control
Mus musculus [12] = test: Antiallodynic activity in CD1 mouse model of capsaicin-induced mechanical allodynia assessed as effect on paw withdrawal latency time at 2 to 64 mg/kg, sc administered 30 mins before capsaicin addition and measured at 30 secs intervals; assay type: functional, organism-based
Mus musculus [13] = test: Antiallodynic activity in CD1 mouse model of capsaicin-induced mechanical allodynia assessed as effect on paw withdrawal latency time at 8 to 16 mg/kg, sc administered 5 mins after sigma1 receptor agonist PRE-084 dosing followed by capsaicin addition and measured after 30 mins post compound dose; assay type: functional, organism-based
Mus musculus [14] = test: Antiallodynic activity in CD1 mouse model of capsaicin-induced mechanical allodynia assessed as effect on paw withdrawal latency time at 32 mg/kg, sc administered 5 mins after sigma1 receptor agonist PRE-084 dosing followed by capsaicin addition and measured after 30 mins post compound dose; assay type: functional, organism-based
in vitro = settings: mouse, liver microsomes
Description: Metabolic stability in mouse liver microsomes assessed as compound remaining at 25 uM after 1 hr in presence of NADPH by LC-MS analysis

[15] = biological target: T4, Sigma non-opioid intracellular receptor 1 (Cavia porcellus, UniProt Q60492); test: Displacement of [3H]-(+)-pentazocine from sigma1 receptor in guinea pig brain cortex membranes incubated for 120 mins by scintillation counting method; assay type: cell membranes
[16] = Selectivity ratio of Ki for sigma2 receptor in rat liver membranes to Ki for sigma1 receptor in guinea pig brain cortex membranes; assay type: cell membranes
Mu-type opioid receptor [17] = biological target: Mu-type opioid receptor (Cavia porcellus, UniProt P97266); test: Displacement of [3H]DAMGO from MOR in guinea pig brain membranes incubated for 120 mins by scintillation counting method; assay type: cell membranes, Membrane
[18] = biological target: Voltage-gated inwardly rectifying potassium channel KCNH2 (Homo sapiens, UniProt Q12809); test: Inhibition of human ERG expressed in CHO cells by automated patch clamp assay; assay type: cell-based
[19] = Stability in pH 2 aqueous HCl solution assessed as parent compound remaining after 24 hrs by HPLC; assay type: physicochemical; settings: buffer, pH 2, 24 h
[20] = Stability in pH 7.4 phosphate buffer assessed as parent compound remaining after 24 hrs by HPLC; assay type: physicochemical; settings: pH 7.4, 24 h
[21] = biological target: T1, Sigma intracellular receptor 2; test: Displacement of [3H]-DTG from sigma2 receptor in rat liver membranes; assay type: cell membranes, Membrane
[22] = biological target: T4, Sigma non-opioid intracellular receptor 1
[23] = biological target: Delta-type opioid receptor (Rattus norvegicus, UniProt P33533); test: Displacement of [3H]DPDPE from DOR in rat brain membranes incubated for 120 mins by scintillation counting method; assay type: cell membranes, Membrane
Mus musculus [24] = test: Antiallodynic activity in CD1 mouse model of capsaicin-induced mechanical allodynia assessed as effect on paw withdrawal latency time at 4 to 64 mg/kg, sc administered 30 mins before capsaicin addition and measured at 30 secs intervals; assay type: functional, organism-based
Mus musculus [25] = test: Antiallodynic activity in CD1 mouse model of capsaicin-induced mechanical allodynia assessed as effect on paw withdrawal latency time at 4 to 32 mg/kg, sc administered 5 mins after sigma1 receptor agonist PRE-084 dosing followed by capsaicin addition and measured after 30 mins post compound dose; assay type: functional, organism-based

T4 sequence (Q60492 whole entry): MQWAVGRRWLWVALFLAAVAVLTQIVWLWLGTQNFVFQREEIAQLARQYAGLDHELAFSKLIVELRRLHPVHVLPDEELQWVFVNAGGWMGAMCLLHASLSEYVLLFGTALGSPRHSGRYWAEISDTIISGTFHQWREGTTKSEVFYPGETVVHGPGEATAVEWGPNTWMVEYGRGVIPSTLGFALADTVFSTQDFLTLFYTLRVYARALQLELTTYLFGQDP
Glutamate receptor ionotropic, NMDA 2B, sequence (Q13224 whole entry): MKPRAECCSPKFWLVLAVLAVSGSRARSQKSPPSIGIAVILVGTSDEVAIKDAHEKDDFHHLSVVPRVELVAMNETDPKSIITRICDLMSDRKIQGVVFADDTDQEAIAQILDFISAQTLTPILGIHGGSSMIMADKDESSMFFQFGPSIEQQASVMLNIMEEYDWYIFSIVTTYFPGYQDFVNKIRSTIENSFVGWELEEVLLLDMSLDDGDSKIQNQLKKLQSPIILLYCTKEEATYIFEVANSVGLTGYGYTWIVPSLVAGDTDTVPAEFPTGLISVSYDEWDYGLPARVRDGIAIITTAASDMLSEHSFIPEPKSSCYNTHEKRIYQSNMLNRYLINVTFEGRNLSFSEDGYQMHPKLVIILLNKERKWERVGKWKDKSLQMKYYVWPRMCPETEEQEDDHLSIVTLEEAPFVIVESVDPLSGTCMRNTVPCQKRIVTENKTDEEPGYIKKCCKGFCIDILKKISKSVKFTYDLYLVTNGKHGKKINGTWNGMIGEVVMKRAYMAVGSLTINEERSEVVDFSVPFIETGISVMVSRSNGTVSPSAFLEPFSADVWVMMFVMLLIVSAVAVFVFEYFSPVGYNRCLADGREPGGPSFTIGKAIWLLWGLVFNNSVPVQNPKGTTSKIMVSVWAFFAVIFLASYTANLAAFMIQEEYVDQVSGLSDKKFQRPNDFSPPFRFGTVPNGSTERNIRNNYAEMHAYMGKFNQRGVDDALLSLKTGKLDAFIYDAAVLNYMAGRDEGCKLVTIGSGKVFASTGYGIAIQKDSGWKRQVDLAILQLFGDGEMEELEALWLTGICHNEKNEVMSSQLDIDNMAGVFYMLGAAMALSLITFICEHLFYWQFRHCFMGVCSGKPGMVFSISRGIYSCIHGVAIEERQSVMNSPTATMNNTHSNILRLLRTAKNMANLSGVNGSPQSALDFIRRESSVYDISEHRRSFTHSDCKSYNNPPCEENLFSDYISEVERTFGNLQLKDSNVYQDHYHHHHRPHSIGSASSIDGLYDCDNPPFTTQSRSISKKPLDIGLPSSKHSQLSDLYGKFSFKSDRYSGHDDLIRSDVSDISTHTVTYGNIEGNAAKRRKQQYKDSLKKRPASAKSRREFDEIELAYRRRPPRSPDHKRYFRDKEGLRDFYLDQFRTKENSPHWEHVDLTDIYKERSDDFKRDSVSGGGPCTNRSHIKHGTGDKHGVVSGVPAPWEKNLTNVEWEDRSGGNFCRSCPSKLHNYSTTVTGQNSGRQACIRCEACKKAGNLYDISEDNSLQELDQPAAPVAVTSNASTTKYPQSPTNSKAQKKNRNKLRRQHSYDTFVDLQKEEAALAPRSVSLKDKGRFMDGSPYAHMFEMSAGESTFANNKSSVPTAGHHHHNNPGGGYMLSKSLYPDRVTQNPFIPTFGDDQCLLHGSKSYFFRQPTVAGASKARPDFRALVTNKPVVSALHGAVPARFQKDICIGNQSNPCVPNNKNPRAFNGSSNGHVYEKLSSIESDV
Sodium-dependent dopamine transporter (Homo sapiens), sequence (Q01959 whole entry): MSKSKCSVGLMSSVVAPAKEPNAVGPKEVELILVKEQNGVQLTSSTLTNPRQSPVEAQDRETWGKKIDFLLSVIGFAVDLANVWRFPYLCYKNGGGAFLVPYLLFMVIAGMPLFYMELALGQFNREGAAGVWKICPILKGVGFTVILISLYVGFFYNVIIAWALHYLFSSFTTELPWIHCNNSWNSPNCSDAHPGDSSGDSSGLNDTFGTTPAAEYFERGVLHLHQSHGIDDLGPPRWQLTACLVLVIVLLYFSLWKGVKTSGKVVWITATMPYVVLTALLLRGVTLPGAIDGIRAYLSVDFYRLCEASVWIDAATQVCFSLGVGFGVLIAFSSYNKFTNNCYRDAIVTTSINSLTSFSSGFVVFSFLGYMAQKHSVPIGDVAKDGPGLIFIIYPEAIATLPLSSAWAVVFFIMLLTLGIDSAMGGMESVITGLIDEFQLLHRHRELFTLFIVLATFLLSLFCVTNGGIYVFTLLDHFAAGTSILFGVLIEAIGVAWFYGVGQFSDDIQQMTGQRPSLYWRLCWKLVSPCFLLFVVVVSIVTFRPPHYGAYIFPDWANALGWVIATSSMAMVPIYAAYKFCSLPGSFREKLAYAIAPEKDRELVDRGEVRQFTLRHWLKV
Mu-type opioid receptor (Cavia porcellus, UniProt P97266), sequence (P97266 whole entry): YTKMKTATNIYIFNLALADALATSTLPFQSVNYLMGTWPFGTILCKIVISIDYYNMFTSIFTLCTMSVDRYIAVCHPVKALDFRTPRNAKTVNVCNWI
Sodium-dependent serotonin transporter (Homo sapiens), sequence (P31645 whole entry, looked up): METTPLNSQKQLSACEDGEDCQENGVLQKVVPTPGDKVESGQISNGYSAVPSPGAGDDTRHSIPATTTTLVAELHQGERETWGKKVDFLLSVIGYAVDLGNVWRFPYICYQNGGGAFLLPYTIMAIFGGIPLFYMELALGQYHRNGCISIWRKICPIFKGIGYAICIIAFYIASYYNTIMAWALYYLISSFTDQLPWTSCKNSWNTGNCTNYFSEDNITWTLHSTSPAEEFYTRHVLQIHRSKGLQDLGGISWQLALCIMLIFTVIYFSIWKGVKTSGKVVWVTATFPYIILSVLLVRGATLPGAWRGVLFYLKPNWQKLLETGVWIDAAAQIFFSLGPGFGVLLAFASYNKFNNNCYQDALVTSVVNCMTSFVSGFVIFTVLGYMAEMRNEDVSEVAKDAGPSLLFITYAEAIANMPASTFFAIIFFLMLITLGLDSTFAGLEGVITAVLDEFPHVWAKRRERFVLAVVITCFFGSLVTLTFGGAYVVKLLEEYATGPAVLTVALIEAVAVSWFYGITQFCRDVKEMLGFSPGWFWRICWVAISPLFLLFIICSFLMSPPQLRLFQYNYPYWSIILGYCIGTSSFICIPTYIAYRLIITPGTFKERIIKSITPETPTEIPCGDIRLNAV
5-hydroxytryptamine receptor 2B (Homo sapiens), sequence (P41595 whole entry): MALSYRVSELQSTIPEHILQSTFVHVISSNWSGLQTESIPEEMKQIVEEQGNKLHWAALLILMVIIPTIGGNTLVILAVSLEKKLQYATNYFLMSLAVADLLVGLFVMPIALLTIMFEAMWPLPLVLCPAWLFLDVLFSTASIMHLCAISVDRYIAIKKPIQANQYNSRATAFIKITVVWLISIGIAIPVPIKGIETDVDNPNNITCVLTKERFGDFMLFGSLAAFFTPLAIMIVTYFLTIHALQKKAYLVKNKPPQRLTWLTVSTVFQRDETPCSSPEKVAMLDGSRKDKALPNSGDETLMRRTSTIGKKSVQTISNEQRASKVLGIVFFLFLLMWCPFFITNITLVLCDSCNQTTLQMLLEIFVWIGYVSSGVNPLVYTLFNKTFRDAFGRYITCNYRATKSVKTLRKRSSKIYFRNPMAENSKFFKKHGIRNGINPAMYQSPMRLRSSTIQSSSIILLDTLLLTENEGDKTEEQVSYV
Histamine H1 receptor (Homo sapiens), sequence (P35367 whole entry): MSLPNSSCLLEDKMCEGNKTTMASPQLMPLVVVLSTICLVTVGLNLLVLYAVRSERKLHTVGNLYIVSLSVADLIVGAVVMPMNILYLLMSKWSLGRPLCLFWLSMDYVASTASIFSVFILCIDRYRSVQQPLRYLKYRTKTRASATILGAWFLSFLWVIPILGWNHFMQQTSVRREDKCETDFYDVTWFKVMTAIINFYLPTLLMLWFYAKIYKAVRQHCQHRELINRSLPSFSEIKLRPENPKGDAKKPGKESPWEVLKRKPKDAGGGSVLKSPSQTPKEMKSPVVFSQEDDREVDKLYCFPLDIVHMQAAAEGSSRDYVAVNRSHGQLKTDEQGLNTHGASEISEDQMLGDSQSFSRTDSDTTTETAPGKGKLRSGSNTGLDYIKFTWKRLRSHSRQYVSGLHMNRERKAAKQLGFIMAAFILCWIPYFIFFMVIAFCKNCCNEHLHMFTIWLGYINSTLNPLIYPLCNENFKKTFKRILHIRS
Sodium-dependent noradrenaline transporter (Homo sapiens), sequence (P23975 whole entry): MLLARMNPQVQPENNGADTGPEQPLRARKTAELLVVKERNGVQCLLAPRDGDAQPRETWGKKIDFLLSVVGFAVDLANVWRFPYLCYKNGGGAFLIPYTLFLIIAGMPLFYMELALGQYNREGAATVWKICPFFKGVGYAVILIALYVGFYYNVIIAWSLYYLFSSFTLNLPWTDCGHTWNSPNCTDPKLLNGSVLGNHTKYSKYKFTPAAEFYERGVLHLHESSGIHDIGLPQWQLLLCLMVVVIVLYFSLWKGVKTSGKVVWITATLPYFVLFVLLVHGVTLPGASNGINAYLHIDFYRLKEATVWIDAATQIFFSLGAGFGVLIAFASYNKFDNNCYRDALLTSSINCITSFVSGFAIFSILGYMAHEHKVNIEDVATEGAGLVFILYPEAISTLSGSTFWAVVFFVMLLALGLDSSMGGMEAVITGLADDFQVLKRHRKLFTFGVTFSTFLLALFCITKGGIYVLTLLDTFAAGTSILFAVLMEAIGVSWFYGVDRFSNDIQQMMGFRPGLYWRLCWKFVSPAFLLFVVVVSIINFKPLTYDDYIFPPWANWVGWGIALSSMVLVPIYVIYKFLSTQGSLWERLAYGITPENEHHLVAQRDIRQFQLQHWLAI
Delta-type opioid receptor, sequence (P33533 whole entry): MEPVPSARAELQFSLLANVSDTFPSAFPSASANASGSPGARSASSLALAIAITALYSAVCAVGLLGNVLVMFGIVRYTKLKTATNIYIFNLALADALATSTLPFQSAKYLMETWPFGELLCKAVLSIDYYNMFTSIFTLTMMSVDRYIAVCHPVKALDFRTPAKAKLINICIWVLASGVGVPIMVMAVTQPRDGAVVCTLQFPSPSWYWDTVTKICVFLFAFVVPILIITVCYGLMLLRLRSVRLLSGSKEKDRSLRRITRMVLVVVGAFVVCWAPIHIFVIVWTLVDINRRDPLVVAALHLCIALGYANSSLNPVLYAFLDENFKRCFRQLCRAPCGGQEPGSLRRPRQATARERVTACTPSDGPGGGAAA

In the case of `CCOC(=O)C[C@@H]1Cc2ccccc2C2(CCC(N3CCN(C4CCCCC4)CC3)CC2)O1` (some centres not stated), the Ki [1] is reported as 355 nM.
In the case of `FCC[C@@H]1Cc2ccccc2C2(CCC(N3CCN(C4CCCCC4)CC3)CC2)O1` (some centres not stated), the Ki [1] is reported as 45 nM, the Ki [2] is reported as > 1000 nM and the Ki [3] is reported as 65 nM. The EC50 (Mu-type opioid receptor [4]) was 1760 nM, the inhibition [5] was < 50% and the inhibition [6] was < 50%. For the same compound, the inhibition [7] was 62%, the inhibition [8] was < 50% and the inhibition [9] was < 50%. For the same compound, the inhibition [10] was < 50%, the inhibition [11] was < 50% and the Activity (Mus musculus [12]) was “Active”. For the same compound, the Activity (Mus musculus [13]) was “inactive”, the Activity (Mus musculus [14]) was “Active” and the remaining at 1 h, 25 µM (in vitro) was 71.8%.
`CO[C@H]1Cc2ccccc2C2(CCC(NC3CCc4ccccc4CC3)CC2)O1` (some centres not stated) showed a Ki [15] of 265 nM and a Ki [1] of 77 nM.
In the case of `OCC[C@H]1Cc2ccccc2C2(CCC(N3CCN(C4CCCCC4)CC3)CC2)O1` (some centres not stated), the Ki [15] is reported as 28 nM.
With `CO[C@@H]1Cc2ccccc2C2(CCC(N3CCN(C4CCCCC4)CC3)CC2)O1` (some centres not stated) the Ki [15] was 6.3 nM, the Ki [1] was 62 nM and the Ratio Ki [16] was 10.
For `Cc1ccc(CNC2CCC3(CC2)O[C@H](CCO)Cc2ccccc23)c(C)c1` (some centres not stated), the Ki [1] was 381 nM.
In the case of `CO[C@@H]1Cc2ccccc2C2(CCC(NCc3ccccc3)CC2)O1` (some centres not stated), the Ki [15] is reported as 538 nM.
For `CCOC(=O)C[C@H]1Cc2ccccc2C2(CCC(N3CCN(C4CCCCC4)CC3)CC2)O1` (some centres not stated), the Ki [1] was 51 nM, the Ki (Mu-type opioid receptor [17]) was 458 nM and the Ki [2] was > 1000 nM. It also gave a Ki [3] of 54 nM, an IC50 [18] of 1750 nM and an inhibition [5] of 78%. For the same compound, the inhibition [6] was 98%, the inhibition [7] was 68% and the inhibition [8] was < 50%. For the same compound, the inhibition [9] was < 50%, the inhibition [10] was < 50% and the inhibition [11] was < 50%. For the same compound, the Stability [19] was “Stable” and the Stability [20] was “Stable”.
`CO[C@H]1Cc2ccccc2C2(CCC(N3CCN(C4CCCCC4)CC3)CC2)O1` (some centres not stated) showed a Ki [15] of 4.4 nM, a Ki [1] of 213 nM and a Ratio Ki [16] of 50.
Work on `COc1cc2c(cc1OC)CN(C1CCC3(CC1)O[C@H](CCF)Cc1ccccc13)CC2` (some centres not stated) yielded a Ki [15] of 807 nM.
`COc1cccc2c1CCCC2CCCN1CCN(C2CCCCC2)CC1` (configuration not stated) showed a Ki [1] of 0.68 nM and a Ki [21] of 0.68 nM.
For `COc1cc2c(cc1OC)CN(C1CCC3(CC1)O[C@H](OC)Cc1ccccc13)CC2` (some centres not stated), the Ki [15] was 639 nM and the Ki [1] was 58 nM.
Work on `Cc1ccc(CNC2CCC3(CC2)O[C@@H](CCO)Cc2ccccc23)c(C)c1` (some centres not stated) yielded a Ki [15] of 548 nM and a Ki [1] of 179 nM.
Compound `Fc1ccc(-n2cc(CCCCN3CCC4(CC3)OCc3ccccc34)c3ccccc32)cc1` [SIRAMESINE] has a Ki [15] of 17 nM and a Ki [22] of 17 nM.
For `CO[C@@H]1Cc2ccccc2C2(CCC(NCc3ccc(C)cc3C)CC2)O1` (some centres not stated), the Ki [15] was 736 nM and the Ki [1] was 7.6 nM.
`Cc1ccc(CNC2CCC3(CC2)O[C@@H](O)Cc2ccccc23)c(C)c1` (some centres not stated) gave a Ki [1] of 66 nM.
With `FCC[C@H]1Cc2ccccc2C2(CCC(N3CCN(C4CCCCC4)CC3)CC2)O1` (some centres not stated) the Ki [15] was 19 nM, the Ki [1] was 432 nM and the Ki (Mu-type opioid receptor [17]) was 434 nM. For the same compound, the Ki [23] was 647 nM, the Ki [2] was > 1000 nM and the Ki [3] was 31 nM. The Activity (Mus musculus [12]) was “Active”, the Activity (Mus musculus [14]) was “inactive” and the Stability [19] was “Stable”. The Stability [20] was “Stable”, the Activity (Mus musculus [24]) was “Active” and the Activity (Mus musculus [25]) was “inactive”. For the same compound, the remaining at 1 h, 25 µM (in vitro) was 69.5%.
`Cc1ccc(CNC2CCC3(CC2)O[C@@H](CCF)Cc2ccccc23)c(C)c1` (some centres not stated) showed a Ki [15] of 966 nM.
